Assay results taken from US10633379B2, “Bromodomain inhibitors” (AbbVie Inc., priority 2016, dated 2020).
pKi: −log10 of the molar value.

How the values were obtained:
BRD4 (BDI_K57-E168) = BRD4 (BDI_K57-E168) (Homo sapiens (Human), UniProt O60885); experiment: TR-FRET bromodomain binding assay, BRD4 BDI; conditions: mean Ki, calculated from IC50, probe Kd and probe concentration
Summary of the method: (§1)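 Probe displacement measured by TR-FRET after 1 h at room temperature, in 20 mM sodium phosphate pH 6.0 and 2% DMSO. BDI used 12 nM protein with 100 nM probe, BDII 4 nM with 30 nM probe, each with 1 nM europium antibody. Ki derived from fitted IC50, probe Kd and probe level.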

BRD4 (BDII_E352-M457) = BRD4 (BDII_E352-M457) (Homo sapiens (Human), UniProt O60885); experiment: TR-FRET bromodomain binding assay, BRD4 BDII; conditions: mean Ki, calculated from IC50, probe Kd and probe concentration
Summary of the method: as §1

SMILES | pKi (BRD4 (BDI_K57-E168)) | pKi (BRD4 (BDII_E352-M457))
CCNC(=O)c1cc2c(-c3cc(C(C)(C)O)c(F)cc3Oc3c(C)cc(F)cc3C)cn(C)c(=O)c2[nH]1 [Example 65, N-ethyl-4-[4-fluoro-2-(4-fluoro-2,6-dimethylphenoxy)-5-(2-hydroxypropan-2-yl)phenyl]-6-methyl-7-oxo-6,7-dihydro-1H-pyrrolo[2,3-c]pyridine-2-carboxamide] | 6.65 | 8.89
CCNC(=O)c1cc2c(-c3cc(C(C)(O)CO)ccc3Oc3c(C)cccc3C)cn(C)c(=O)c2[nH]1 (stereo not drawn) [Example 66, 4-[5-(1,2-dihydroxypropan-2-yl)-2-(2,6-dimethylphenoxy)phenyl]-N-ethyl-6-methyl-7-oxo-6,7-dihydro-1H-pyrrolo[2,3-c]pyridine-2-carboxamide] | 6.54 | 8.85
CCNC(=O)c1cc2c(-c3cc(C(C)(O)CCO)ccc3Oc3c(C)cccc3C)cn(C)c(=O)c2[nH]1 (stereo not drawn) [Example 67, 4-[5-(2,4-dihydroxybutan-2-yl)-2-(2,6-dimethylphenoxy)phenyl]-N-ethyl-6-methyl-7-oxo-6,7-dihydro-1H-pyrrolo[2,3-c]pyridine-2-carboxamide] | 6.59 | 8.96
CCNC(=O)c1cc2c(-c3cc(C(C)(C)O)ccc3Oc3c(C)cccc3C(F)F)cn(C)c(=O)c2[nH]1 [Example 70, 4-{2-[2-(difluoromethyl)-6-methylphenoxy]-5-(2-hydroxypropan-2-yl)phenyl}-N-ethyl-6-methyl-7-oxo-6,7-dihydro-1H-pyrrolo[2,3-c]pyridine-2-carboxamide] | 5.87 | 8.43
Cc1cccc(C(F)F)c1Oc1ccc(C(C)(C)O)cc1-c1cn(C)c(=O)c2[nH]c(C(=O)NC(C)(C)C)cc12 [Example 71, N-tert-butyl-4-{2-[2-(difluoromethyl)-6-methylphenoxy]-5-(2-hydroxypropan-2-yl)phenyl}-6-methyl-7-oxo-6,7-dihydro-1H-pyrrolo[2,3-c]pyridine-2-carboxamide] | 5.64 | 8.12
CCNC(=O)c1cc2c(-c3cc(C(C)(C)O)ccc3Oc3c(C)cc(Br)cc3C)cn(C)c(=O)c2[nH]1 [Example 72, 4-[2-(4-bromo-2,6-dimethylphenoxy)-5-(2-hydroxypropan-2-yl)phenyl]-N-ethyl-6-methyl-7-oxo-6,7-dihydro-1H-pyrrolo[2,3-c]pyridine-2-carboxamide] | 6.10 | 8.89
CCNC(=O)c1cc2c(-c3cc(C(C)(C)O)ccc3Oc3c(C)cc(C#N)cc3C)cn(C)c(=O)c2[nH]1 [Example 73, 4-[2-(4-cyano-2,6-dimethylphenoxy)-5-(2-hydroxypropan-2-yl)phenyl]-N-ethyl-6-methyl-7-oxo-6,7-dihydro-1H-pyrrolo[2,3-c]pyridine-2-carboxamide] | 6.38 | 8.82
CCNC(=O)c1cc2c(-c3cc(C(C)(C)O)ccc3Oc3c(C)ccnc3C)cn(C)c(=O)c2[nH]1 [Example 74, 4-{2-[(2,4-dimethylpyridin-3-yl)oxy]-5-(2-hydroxypropan-2-yl)phenyl}-N-ethyl-6-methyl-7-oxo-6,7-dihydro-1H-pyrrolo[2,3-c]pyridine-2-carboxamide] | 6.26 | 8.52
Cc1cc(F)cc(C)c1Oc1ccc(C(C)(C)O)cc1-c1cn(C)c(=O)c2[nH]c(C(=O)NC34CC(C3)C4)cc12 [Example 75, N-(bicyclo[1.1.1]pentan-1-yl)-4-[2-(4-fluoro-2,6-dimethylphenoxy)-5-(2-hydroxypropan-2-yl)phenyl]-6-methyl-7-oxo-6,7-dihydro-1H-pyrrolo[2,3-c]pyridine-2-carboxamide] | 6.13 | 8.54
Cc1cccc(C)c1Oc1ccc(C(C)(C)O)nc1-c1cn(C)c(=O)c2[nH]c(C(=O)NC(C)(C)C)cc12 [Example 76, N-tert-butyl-4-[3-(2,6-dimethylphenoxy)-6-(2-hydroxypropan-2-yl)pyridin-2-yl]-6-methyl-7-oxo-6,7-dihydro-1H-pyrrolo[2,3-c]pyridine-2-carboxamide] | 6.03 | 8.06
CCNC(=O)c1cc2c(-c3nc(C(C)(C)O)ccc3Oc3c(C)cccc3C)cn(C)c(=O)c2[nH]1 [Example 77, 4-[3-(2,6-dimethylphenoxy)-6-(2-hydroxypropan-2-yl)pyridin-2-yl]-N-ethyl-6-methyl-7-oxo-6,7-dihydro-1H-pyrrolo[2,3-c]pyridine-2-carboxamide] | 6.22 | 8.66
CCNC(=O)c1cc2c(-c3cc(C(C)(O)CF)cnc3Oc3c(C)cc(F)cc3C)cn(C)c(=O)c2[nH]1 (stereo not drawn) [Example 78, N-ethyl-4-[2-(4-fluoro-2,6-dimethylphenoxy)-5-(1-fluoro-2-hydroxypropan-2-yl)pyridin-3-yl]-6-methyl-7-oxo-6,7-dihydro-1H-pyrrolo[2,3-c]pyridine-2-carboxamide] | 6.60 | 8.66
CCNC(=O)c1cc2c(-c3cc(C(C)(O)C(F)(F)F)cnc3Oc3c(C)cc(F)cc3C)cn(C)c(=O)c2[nH]1 (stereo not drawn) [Example 79, N-ethyl-4-[2-(4-fluoro-2,6-dimethylphenoxy)-5-(1,1,1-trifluoro-2-hydroxypropan-2-yl)pyridin-3-yl]-6-methyl-7-oxo-6,7-dihydro-1H-pyrrolo[2,3-c]pyridine-2-carboxamide] | 6.65 | 8.60
CCNC(=O)c1cc2c(-c3cc(C(O)(C(F)(F)F)C(F)(F)F)cnc3Oc3c(C)cc(F)cc3C)cn(C)c(=O)c2[nH]1 [Example 80, N-ethyl-4-[2-(4-fluoro-2,6-dimethylphenoxy)-5-(1,1,1,3,3,3-hexafluoro-2-hydroxypropan-2-yl)pyridin-3-yl]-6-methyl-7-oxo-6,7-dihydro-1H-pyrrolo[2,3-c]pyridine-2-carboxamide] | 6.31 | 8.28
CCNC(=O)c1cc2c(-c3cc(C(C)(C)O)ccc3Oc3c(C)cccc3F)cn(C)c(=O)c2[nH]1 [Example 81, N-ethyl-4-[2-(2-fluoro-6-methylphenoxy)-5-(2-hydroxypropan-2-yl)phenyl]-6-methyl-7-oxo-6,7-dihydro-1H-pyrrolo[2,3-c]pyridine-2-carboxamide] | 7.37 | 8.96
CCNC(=O)c1cc2c(-c3cc(C(C)(O)CF)ccc3Oc3c(C)cc(F)cc3C)cn(C)c(=O)c2[nH]1 (stereo not drawn) [Example 83, N-ethyl-4-[2-(4-fluoro-2,6-dimethylphenoxy)-5-(1-fluoro-2-hydroxypropan-2-yl)phenyl]-6-methyl-7-oxo-6,7-dihydro-1H-pyrrolo[2,3-c]pyridine-2-carboxamide] | 6.46 | 8.96
CCNC(=O)c1cc2c(-c3cc(C(C)(C)O)ccc3Oc3c(C)cc(Cl)cc3C)cn(C)c(=O)c2[nH]1 [Example 84, 4-[2-(4-chloro-2,6-dimethylphenoxy)-5-(2-hydroxypropan-2-yl)phenyl]-N-ethyl-6-methyl-7-oxo-6,7-dihydro-1H-pyrrolo[2,3-c]pyridine-2-carboxamide] | 6.21 | 8.72
CCNC(=O)c1cc2c(-c3cc(C(C)(C)O)ccc3Oc3c(C)cc(S(C)(=O)=O)cc3C)cn(C)c(=O)c2[nH]1 [Example 85, N-ethyl-4-{5-(2-hydroxypropan-2-yl)-2-[4-(methanesulfonyl)-2,6-dimethylphenoxy]phenyl}-6-methyl-7-oxo-6,7-dihydro-1H-pyrrolo[2,3-c]pyridine-2-carboxamide] | 6.36 | 8.74
CCNC(=O)c1cc2c(-c3cc(C(C)(O)C(F)(F)F)ccc3Oc3c(C)cc(F)cc3C)cn(C)c(=O)c2[nH]1 (stereo not drawn) [Example 86, N-ethyl-4-[2-(4-fluoro-2,6-dimethylphenoxy)-5-(1,1,1-trifluoro-2-hydroxypropan-2-yl)phenyl]-6-methyl-7-oxo-6,7-dihydro-1H-pyrrolo[2,3-c]pyridine-2-carboxamide] | 6.38 | 8.85
Cc1cc(F)cc(C)c1Oc1ccc(C(C)(O)CF)cc1-c1cn(C)c(=O)c2[nH]c(C(=O)NC(C)(C)C)cc12 (stereo not drawn) [Example 87, N-tert-butyl-4-[2-(4-fluoro-2,6-dimethylphenoxy)-5-(1-fluoro-2-hydroxypropan-2-yl)phenyl]-6-methyl-7-oxo-6,7-dihydro-1H-pyrrolo[2,3-c]pyridine-2-carboxamide] | 6.30 | 8.55
CCNC(=O)c1cc2c(-c3cc(C(C)(O)CF)ccc3Oc3c(C)cc(Cl)cc3C)cn(C)c(=O)c2[nH]1 (stereo not drawn) [Example 88, 4-[2-(4-chloro-2,6-dimethylphenoxy)-5-(1-fluoro-2-hydroxypropan-2-yl)phenyl]-N-ethyl-6-methyl-7-oxo-6,7-dihydro-1H-pyrrolo[2,3-c]pyridine-2-carboxamide] | 6.41 | 8.96
CCNC(=O)c1cc2c(-c3cc(C(C)(C)O)cnc3-c3ccc(F)cc3F)cn(C)c(=O)c2[nH]1 [Example 89, 4-[2-(2,4-difluorophenyl)-5-(2-hydroxypropan-2-yl)pyridin-3-yl]-N-ethyl-6-methyl-7-oxo-6,7-dihydro-1H-pyrrolo[2,3-c]pyridine-2-carboxamide] | 6.55 | 8.77
Cc1cc(S(C)(=O)=O)cc(C)c1Oc1ccc(C(C)(C)O)cc1-c1cn(C)c(=O)c2[nH]c(C(=O)NC(C)(C)C)cc12 [Example 90, N-tert-butyl-4-{5-(2-hydroxypropan-2-yl)-2-[4-(methanesulfonyl)-2,6-dimethylphenoxy]phenyl}-6-methyl-7-oxo-6,7-dihydro-1H-pyrrolo[2,3-c]pyridine-2-carboxamide] | 6.80 | 8.70
CCNC(=O)c1cc2c(-c3cc(C(C)(C)O)cnc3Oc3c(C)ccc(F)c3C)cn(C)c(=O)c2[nH]1 [Example 91, N-ethyl-4-[2-(3-fluoro-2,6-dimethylphenoxy)-5-(2-hydroxypropan-2-yl)pyridin-3-yl]-6-methyl-7-oxo-6,7-dihydro-1H-pyrrolo[2,3-c]pyridine-2-carboxamide] | 6.57 | 8.80
